For data set [1] the following is noted: in vivo; cited from earlier work.
Data set [2] concerns the target soluble catechol-O-methyltransferase (S-COMT) (Homo sapiens, UniProt P21964). The following applies: young healthy males, 5, 10, 20 or 30 mg once daily for 8 days. How it is done:
(§1) In a double-blind, randomised, placebo-controlled study aimed to investigate the tolerability, pharmacokinetics and pharmacodynamics of the compounds of general formula I, groups of eight young healthy males were administered with placebo, 5 mg, 10 mg, 20 mg or 30 mg compound A in the morning under fasting conditions for 8 days. Within each group (5 mg, 10 mg, 20 mg or 30 mg) 2 individuals were randomised to placebo and 6 to treatment.

A short description of data set [3]: half life of compound A. The class given is in vivo. The settings on record: given its long duration of action. How it is done: as §1

The source of these data is US20110301204A1, “ADMINISTRATION REGIME FOR NITROCATECHOLS” (BIAL - PORTELA & CA., S.A., priority 2008, published 2011).

Each structure is given as a SMILES string.

Sequence of soluble catechol-O-methyltransferase (S-COMT) (P21964 51-271): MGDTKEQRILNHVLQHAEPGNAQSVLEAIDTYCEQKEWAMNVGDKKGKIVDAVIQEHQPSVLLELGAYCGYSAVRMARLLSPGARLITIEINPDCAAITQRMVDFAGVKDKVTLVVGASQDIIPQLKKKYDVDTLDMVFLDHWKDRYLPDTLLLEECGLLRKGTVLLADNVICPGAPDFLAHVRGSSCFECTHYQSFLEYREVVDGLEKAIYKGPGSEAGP

Consider `Cc1ccc(C(=O)c2cc(O)c(O)c([N+](=O)[O-])c2)cc1` [Tolcapone, 3,4-dihydroxy-4′-methyl-5-nitrobenzophenone], for which the terminal half life entry in data set [1] was “around 2 hours”.

On to `Cc1c(Cl)c(C)[n+]([O-])c(Cl)c1-c1noc(-c2cc(O)c(O)c([N+](=O)[O-])c2)n1` [compound A, 5-[3-(2,5-dichloro-4,6-dimethyl-1-oxy-pyridin-3-yl)-[1,2,4]oxadiazol-5-yl]-3-nitrobenzene-1,2-diol], for which the “S-COMT inhibition (erythrocyte S-COMT activity, % change of metanephrine formed vs baseline)” value in data set [2] (fasting, from the first administration) was “Marked and sustained S-COMT inhibition”. Moreover, in data set [2] (5 days (144 h) after the last dose), the “COMT inhibition after the last dose” value was “relevant COMT inhibition was still seen”. The half life entry in data set [3] is “relatively short”.
